Assay [1] addresses T1, F876L mutant Androgen Receptor (AR-F876L) (Homo sapiens, UniProt P10275, F877L).
T1 construct: expressed in transfected cells; host or cells: LNCaP
T1 sequence (P10275 1-920 F877L): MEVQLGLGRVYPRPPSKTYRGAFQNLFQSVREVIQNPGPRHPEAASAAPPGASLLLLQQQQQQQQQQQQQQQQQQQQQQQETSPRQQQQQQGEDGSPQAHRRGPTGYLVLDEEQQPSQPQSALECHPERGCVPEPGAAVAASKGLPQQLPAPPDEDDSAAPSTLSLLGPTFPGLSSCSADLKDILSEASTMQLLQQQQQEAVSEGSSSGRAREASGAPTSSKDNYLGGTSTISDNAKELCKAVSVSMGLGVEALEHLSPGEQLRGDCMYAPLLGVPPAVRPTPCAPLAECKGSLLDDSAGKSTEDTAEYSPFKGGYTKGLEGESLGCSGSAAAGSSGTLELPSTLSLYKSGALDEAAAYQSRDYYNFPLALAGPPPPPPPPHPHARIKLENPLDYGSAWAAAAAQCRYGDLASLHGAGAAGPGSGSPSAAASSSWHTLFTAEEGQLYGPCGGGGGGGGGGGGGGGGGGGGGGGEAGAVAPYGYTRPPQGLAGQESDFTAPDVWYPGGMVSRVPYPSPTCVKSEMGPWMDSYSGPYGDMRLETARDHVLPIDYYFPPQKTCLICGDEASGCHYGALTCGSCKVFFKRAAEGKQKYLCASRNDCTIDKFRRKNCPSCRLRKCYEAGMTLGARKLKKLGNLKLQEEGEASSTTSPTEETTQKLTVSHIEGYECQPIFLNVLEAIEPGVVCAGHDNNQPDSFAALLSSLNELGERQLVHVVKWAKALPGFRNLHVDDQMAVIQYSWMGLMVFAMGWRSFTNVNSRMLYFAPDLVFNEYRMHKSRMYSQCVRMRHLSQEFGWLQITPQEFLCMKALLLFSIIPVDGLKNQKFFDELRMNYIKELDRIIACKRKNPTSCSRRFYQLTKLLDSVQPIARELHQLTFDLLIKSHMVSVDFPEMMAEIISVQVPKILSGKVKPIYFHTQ
The experiment in a line: AR reporter assay, LNCaP-AR-F876L AG (agonist mode). The assay is classed as cell-based. To be noted: for Emax: read-out: LNCaP-AR-F876L AG MAX % Stim. An excerpt:
(§1) LNCaP AR (cs) and LNCaP F876L luciferase cell lines were generated by transduction of each cell line (description of cell line generation Joseph J D, Lu N, Qian J, Sensintaffar J, Shao G, Brigham D, Moon M, Maneval E C, Chen I, Darimont B, Hager J H. A clinically relevant androgen receptor mutation confers resistance to second-generation antiandrogens enzalutamide and ARN-509. Cancer Discov 2013; 3:1020-1029) with an Androgen Response Element Firefly Luciferase lentiviral construct at an MOI (multiplicity of infection) of 50 following the manufacturer's instructions (Qiagen). A stable pooled-population cell line was generated using puromycin (Life Technologies) selection at 1:10,000 v/v. The protocol below was used for both cell lines and for testing of the compounds of Formula (I) of the present invention.
(§2) LNCaP cells were grown to about 80% confluence, media removed and cells rinsed in Hank's balanced salt solution prior to separation from the plate with 0.05% Trypsin EDTA. Cells were lifted and trypsin negated in complete CSS (charcoal stripped serum) culture media. CSS was maintained on cells for 24 h prior to assay, at which time 5,000 cells/[…] were seeded in Greiner 384 well White/White Tissue Culture Treated Plates and incubated for a further 1-2 hours at 37° C., 5% CO2, prior to addition of 10 μL of 4× Test Compounds (compounds described herein) or Assay Controls (all diluted in complete media containing 10% css). A further 10 μL of 4× R-1881 Agonist Challenge (antagonist assay) or Buffer (agonist assay) was then added (all diluted in complete media containing 10% css). Agonist challenge was at 400 pM for WT assay and 600 pM for F876L assay. Plates containing cells and compounds herein were incubated for a further 20-24 hours at 37° C., 5% CO2 before addition of 40 μL/well of Steady-Glo Luciferase Assay System Reagent (Promega#E2520). After 1 h, plates were read for luminescence on a BMG Pherastar.
((Sample RLU−Ave Low Control RLU[DMSO/Buffer])/(Ave High Control RLU [1 μM R-1881]—Ave Low Control RLU[DMSO/Buffer]))*100.
(§3) EC/IC50 calculations were achieved utilizing calculated RLU data and data fitting macros. Data were fit using least-squares methods to the following formula: […]
(§4) As used herein: • pIC50 is defined as −Log10(IC50 expressed in [Molar]). • pEC50 is defined as −Log10(EC50 expressed in [Molar]). • MAX % Inh is defined as the maximum % inhibition of R1881 control response observed for a compound over the tested concentration range. • MAX % Stim is defined as the maximum % stimulation (agonist response) observed for a compound over the tested concentration range. • LNCaP-AR-wt ANT refers to the reporter assay using LNCaP cells stably transfected with the Androgen Response Element Firefly Luciferase lentiviral construct and wild-type Androgen Receptor (AR-wt) in Antagonist mode. • LNCaP-AR-wt AG refers to the reporter assay using LNCaP cells stably transfected with the Androgen Response Element Firefly Luciferase lentiviral construct and wild-type Androgen Receptor (AR-wt) in Agonist mode. • LNCaP-AR-F876L ANT refers to the reporter assay using LNCaP cells stably transfected with the Androgen Response Element Firefly Luciferase lentiviral construct and F876L mutant Androgen Receptor (AR-F876L) in Antagonist mode. • LNCaP-AR-F876L AG refers to the reporter assay using LNCaP cells stably transfected with the Androgen Response Element Firefly Luciferase lentiviral construct and F876L mutant Androgen Receptor (AR-F876L) in Agonist mode.

Assay [2] deals with T1, F876L mutant Androgen Receptor (AR-F876L). The assay is described as follows: AR reporter assay, LNCaP-AR-F876L ANT (antagonist mode). The settings on record: for Emax: read-out: LNCaP-AR-F876L ANT MAX % Inh. The assay is classed as cell-based.
From the text: as §1, §2
Agonist challenge: R-1881 (Metribolone)—Agonist
Antagonist control (low control): 5-(5-(4-((1-Methylpiperidin-4-yl)oxy)phenyl)-8-oxo-6-thioxo-5,7-diazaspiro[3.4]octan-7-yl)-3-(trifluoromethyl)picolinonitrile (WO 2011/103202, EXAMPLE 19, Compound 129, CAS #1332390-06-3).
(1−(Sample RLU−Ave Low Control RLU[10 μM Antagonist Control])/(Ave High Control RLU [400 pM R-1881]−Ave Low Control RLU[10 μM Antagonist Control]))*100.
as §3, §4

Counter-ions that a name gives are not always drawn. Like-named read-outs stand apart in the source and are kept apart here.

For the compound `CC1(C)C(=O)N(c2ccc(C#N)c(C(F)(F)F)c2)C(=S)N1c1ccc(OC2CCNCC2)cc1` [Compound 1, 4-(4,4-Dimethyl-5-oxo-3-(4-(piperidin-4-yloxy)phenyl)-2-thioxoimidazolidin-1-yl)-2-(trifluoromethyl)benzonitrile], in assay [1], the concentration for a half-maximal effect (EC50) is greater than 15100 nM and the Emax is -0.1%. In assay [2], the IC50 is 41.7 nM and the Emax worked out at 102%.
On the same counts, the results for `CN1CCC(Oc2ccc(N3C(=S)N(c4ccc(C#N)c(C(F)(F)F)c4)C(=O)C3(C)C)cc2)CC1` [Compound 2, 4-(4,4-Dimethyl-3-(4-((1-methylpiperidin-4-yl)oxy)phenyl)-5-oxo-2-thioxoimidazolidin-1-yl)-2-(trifluoromethyl)benzonitrile hydrochloride] are greater than 15100 nM, 0.1%, 69.2 nM and 101%.
Consider `CC1(C)C(=O)N(c2ccc(C#N)c(C(F)(F)F)c2)C(=S)N1c1ccc(OC2CCNCC2)nc1` [Compound 3, 4-(4,4-Dimethyl-5-oxo-3-(6-(piperidin-4-yloxy)pyridin-3-yl)-2-thioxoimidazolidin-1-yl)-2-(trifluoromethyl)benzonitrile hydrochloride], for which, in assay [1], the EC50 is greater than 15100 nM and the Emax is 0.3%. Moreover, in assay [2], the IC50 was 40.7 nM and the Emax stood at 102%.
In the same order, the values of `CN1CCC(Oc2ccc(N3C(=S)N(c4ccc(C#N)c(C(F)(F)F)c4)C(=O)C3(C)C)cn2)CC1` [Compound 4, 4-(4,4-Dimethyl-3-(6-((1-methylpiperidin-4-yl)oxy)pyridin-3-yl)-5-oxo-2-thioxoimidazolidin-1-yl)-2-(trifluoromethyl)benzonitrile hydrochloride] are greater than 15100 nM, 0.1%, 83.2 nM and 102%.
As to `CC1(C)C(=O)N(c2ccc(C#N)c(C(F)(F)F)c2)C(=S)N1c1cnc(OC2CCNCC2)nc1` [Compound 5, 4-(4,4-Dimethyl-5-oxo-3-(2-(piperidin-4-yloxy)pyrimidin-5-yl)-2-thioxoimidazolidin-1-yl)-2-(trifluoromethyl)benzonitrile], in assay [1], the EC50 is greater than 15100 nM and the Emax amounted to 0%. Besides, in assay [2], the IC50 is 229 nM and the Emax stood at 101%.
As to `CN1CCC(Oc2ncc(N3C(=S)N(c4ccc(C#N)c(C(F)(F)F)c4)C(=O)C3(C)C)cn2)CC1` [Compound 6, 4-(4,4-Dimethyl-3-(2-((1-methylpiperidin-4-yl)oxy)pyrimidin-5-yl)-5-oxo-2-thioxoimidazolidin-1-yl)-2-(trifluoromethyl)benzonitrile], in assay [1], the EC50 is greater than 15100 nM. Further, the Emax in assay [1] is -0.1%; in assay [2], 101%. Moreover, the IC50 in assay [2] (antagonist mode, 600 pM R-1881 challenge, luciferase reporter, -Log10(IC50 in Molar), read-out: LNCaP-AR-F876L ANT pIC50 (converted)) was 135 nM.
`CC1(C)C(=O)N(c2ccc(C#N)c(Cl)c2)C(=S)N1c1ccc(OC2CCNCC2)cc1` [Compound 7, 2-Chloro-4-(4,4-dimethyl-5-oxo-3-(4-(piperidin-4-yloxy)phenyl)-2-thioxoimidazolidin-1-yl)benzonitrile hydrochloride]: in assay [1], the EC50 was greater than 15100 nM and the Emax was -0.1%. Besides, in assay [2], the IC50 is 38 nM and the Emax turned out to be 101%.
With `CN1CCC(Oc2ccc(N3C(=S)N(c4ccc(C#N)c(Cl)c4)C(=O)C3(C)C)cc2)CC1` [Compound 8, 2-Chloro-4-(4,4-dimethyl-3-(4-((1-methylpiperidin-4-yl)oxy)phenyl)-5-oxo-2-thioxoimidazolidin-1-yl)benzonitrile hydrochloride], in assay [1], the half-maximal effective concentration (EC50) is greater than 15100 nM and the Emax worked out at 0.1%. In addition, in assay [2], the IC50 is 58.9 nM and the Emax was 101%.
On the same counts, the results for `CC1(C)C(=O)N(c2ccc(C#N)c(Cl)c2)C(=S)N1c1ccc(OC2CCNCC2)nc1` [Compound 9, 2-Chloro-4-(4,4-dimethyl-5-oxo-3-(6-(piperidin-4-yloxy)pyridin-3-yl)-2-thioxoimidazolidin-1-yl)benzonitrile hydrochloride] are greater than 15100 nM, 0%, 38.9 nM and 100%.
With `CN1CCC(Oc2ccc(N3C(=S)N(c4ccc(C#N)c(Cl)c4)C(=O)C3(C)C)cn2)CC1` [Compound 10, 2-Chloro-4-(4,4-dimethyl-3-(6-((1-methylpiperidin-4-yl)oxy)pyridin-3-yl)-5-oxo-2-thioxoimidazolidin-1-yl)benzonitrile hydrochloride], in assay [1], the EC50 is greater than 15100 nM and the Emax was found to be 0.1%. In assay [2], the IC50 was 85.1 nM and the Emax came out at 101%.
In the same order, the values of `N#Cc1ccc(N2C(=O)C3(CCC3)N(c3ccc(OC4CCNCC4)cc3)C2=S)cc1C(F)(F)F` [Compound 11, 4-(8-Oxo-5-(4-(piperidin-4-yloxy)phenyl)-6-thioxo-5,7-diazaspiro[3.4]octan-7-yl)-2-(trifluoromethyl)benzonitrile] are greater than 15100 nM, 0.1%, 107 nM and 102%.
On the same counts, the results for `CN1CCC(Oc2ccc(N3C(=S)N(c4ccc(C#N)c(C(F)(F)F)c4)C(=O)C34CCC4)cc2)CC1` [Compound 12, 4-(5-(4-((1-Methylpiperidin-4-yl)oxy)phenyl)-8-oxo-6-thioxo-5,7-diazaspiro[3.4]octan-7-yl)-2-(trifluoromethyl)benzonitrile] are greater than 15100 nM, 0.2%, 166 nM and 101%.
